# Laboratory results taken from US7410767B1, “HLA-E binding” (Isis Innovation Limited, priority 1997, dated 2008).
# Read-outs that look alike come from different tables or passages of the source. No end group written: not given here.
# Target: HLA-E (Homo sapiens, UniProt P13747, G128R)
# Assay: in vitro peptide binding assay to HLA-E
# From the text: Whatever form of HLA-E is used, a suitable peptide for binding in the HLA-E peptide groove will be required. […] Other peptides which bind to HLA-E may be used, for example peptides from viral proteins which may be the same as or different to MHC class I leader sequence peptides. […] A suitable assay for identifying synthetic peptides which bind to HLA-E is described in Braud et al 1997 Eur. J. Immunol. 27:1164-1169.
# [1] = in vitro peptide binding assay, ratio of optical densities, read-out: Concentration of peptide required to obtain 50% of binding to HLA-E
Compound,EC50 [1],EC50
VTAPRTLLL,> 100 µM,–
CSCC[C@H](NC(=O)[C@@H](N)C(C)C)C(=O)N[C@@H](C)C(=O)N1CCC[C@H]1C(=O)N[C@@H](CCCNC(=N)N)C(=O)N[C@H](C(=O)N[C@@H](CC(C)C)C(=O)N[C@@H](CC(C)C)C(=O)N[C@@H](CC(C)C)C(=O)O)[C@@H](C)O,–,0.3 µM
CC(C)C[C@H](NC(=O)[C@H](CC(C)C)NC(=O)[C@@H](NC(=O)[C@@H](NC(=O)[C@H](CCCNC(=N)N)NC(=O)[C@@H]1CCCN1C(=O)[C@H](C)NC(=O)[C@@H](NC(=O)[C@@H](N)C(C)C)[C@@H](C)O)[C@@H](C)O)C(C)C)C(=O)O,> 100 µM,–
CSCC[C@H](NC(=O)[C@@H](N)C(C)C)C(=O)N[C@@H](C)C(=O)N1CCC[C@H]1C(=O)N[C@@H](CCCNC(=N)N)C(=O)N[C@H](C(=O)N[C@@H](CC(C)C)C(=O)N[C@H](C(=O)N[C@@H](CC(C)C)C(=O)O)C(C)C)[C@@H](C)O,0.06 µM,–
CSCC[C@H](NC(=O)[C@@H](N)C(C)C)C(=O)N[C@@H](C)C(=O)N1CCC[C@H]1C(=O)N[C@@H](CCCNC(=N)N)C(=O)N[C@H](C(=O)N[C@H](C(=O)N[C@@H](CC(C)C)C(=O)N[C@@H](CC(C)C)C(=O)O)C(C)C)[C@@H](C)O,0.06 µM,–
